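How tested: cells in 96-well plates exposed to compound for 48 hours at five concentrations. Here, GI50 denotes the concentration required for 50% inhibition of growth. TGI: concentration producing complete growth inhibition.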
Assays:
Assay in all cases: NCI tumour cell line growth inhibition, 48 h
786-0 renal = system: 786-0 renal
A549 NSCLC = system: A549 NSCLC
ACHN renal = system: ACHN renal
CAKI-1 renal = system: CAKI-1 renal
CCRF-CEM leukemia = system: CCRF-CEM leukemia
COLO 205 colon = system: COLO 205 colon
DLD-1 colon = system: DLD-1 colon
DMS 114 small cell lung = system: DMS 114 small cell lung
EKVX NSCLC = system: EKVX NSCLC
HCT-116 colon = system: HCT-116 colon
HCT-15 colon = system: HCT-15 colon
HL-60(TB) leukemia = system: HL-60(TB) leukemia
HOP-62 NSCLC = system: HOP-62 NSCLC
HOP-92 NSCLC = system: HOP-92 NSCLC
HT29 colon = system: HT29 colon
IGROV1 ovarian = system: IGROV1 ovarian
K-562 leukemia = system: K-562 leukemia
KM12 colon = system: KM12 colon
LOX IMVI melanoma = system: LOX IMVI melanoma
LXFL 529 NSCLC = system: LXFL 529 NSCLC
M14 melanoma = system: M14 melanoma
M19-MEL melanoma = system: M19-MEL melanoma
MOLT-4 leukemia = system: MOLT-4 leukemia
NCI-H226 lung = system: NCI-H226 lung
NCI-H23 lung = system: NCI-H23 lung
NCI-H460 lung = system: NCI-H460 lung
NCI-H522 lung = system: NCI-H522 lung
OVCAR-3 ovarian = system: OVCAR-3 ovarian
OVCAR-4 ovarian = system: OVCAR-4 ovarian
OVCAR-5 ovarian = system: OVCAR-5 ovarian
OVCAR-8 ovarian = system: OVCAR-8 ovarian
RPMI-8226 leukemia = system: RPMI-8226 leukemia
SF-268 CNS = system: SF-268 CNS
SF-295 CNS = system: SF-295 CNS
SF-539 CNS = system: SF-539 CNS
SK-MEL-5 melanoma = system: SK-MEL-5 melanoma
SK-OV-3 ovarian = system: SK-OV-3 ovarian
SN12C renal = system: SN12C renal
SNB-75 CNS = system: SNB-75 CNS
SNB-78 CNS = system: SNB-78 CNS
SR leukemia = system: SR leukemia
SW-620 colon = system: SW-620 colon
U251 CNS = system: U251 CNS
UACC-62 melanoma = system: UACC-62 melanoma
A498 renal = system: A498 renal
DMS 273 small cell lung = system: DMS 273 small cell lung
HCC-2998 colon = system: HCC-2998 colon
KM20L2 colon = system: KM20L2 colon
MALME-3M melanoma = system: MALME-3M melanoma
SK-MEL-2 melanoma = system: SK-MEL-2 melanoma
SK-MEL-28 melanoma = system: SK-MEL-28 melanoma
SNB-19 CNS = system: SNB-19 CNS
TK-10 renal = system: TK-10 renal
UACC-257 melanoma = system: UACC-257 melanoma
UO-31 renal = system: UO-31 renal
DU-145 prostate = system: DU-145 prostate
MCF7 breast = system: MCF7 breast
MDA-MB-231 breast = system: MDA-MB-231 breast
MDA-MB-435 = system: MDA-MB-435
MDA-N = system: MDA-N
NCI/ADR-RES ovarian = system: NCI/ADR-RES ovarian
PC-3 prostate = system: PC-3 prostate
T-47D breast = system: T-47D breast

CC(C)(c1cn(Cc2ccccc2)c2ccccc12)c1cn(Cc2ccccc2)c2ccccc12
TGI (786-0 renal): > 100 µM
TGI (A549 NSCLC): > 100 µM
TGI (ACHN renal): > 100 µM
TGI (CAKI-1 renal): > 100 µM
TGI (CCRF-CEM leukemia): > 100 µM
TGI (COLO 205 colon): > 100 µM
TGI (DLD-1 colon): > 100 µM
TGI (DMS 114 small cell lung): > 100 µM
TGI (EKVX NSCLC): > 100 µM
TGI (HCT-116 colon): > 100 µM
TGI (HCT-15 colon): > 100 µM
TGI (HL-60(TB) leukemia): > 100 µM
TGI (HOP-62 NSCLC): > 100 µM
TGI (HOP-92 NSCLC): > 100 µM
TGI (HT29 colon): > 100 µM
TGI (IGROV1 ovarian): > 100 µM
TGI (K-562 leukemia): > 100 µM
TGI (KM12 colon): > 100 µM
TGI (LOX IMVI melanoma): > 100 µM
TGI (LXFL 529 NSCLC): > 100 µM
TGI (M14 melanoma): > 100 µM
TGI (M19-MEL melanoma): > 100 µM
TGI (MOLT-4 leukemia): > 100 µM
TGI (NCI-H226 lung): > 100 µM
TGI (NCI-H23 lung): > 100 µM
TGI (NCI-H460 lung): > 100 µM
TGI (NCI-H522 lung): > 100 µM
TGI (OVCAR-3 ovarian): > 100 µM
TGI (OVCAR-4 ovarian): > 100 µM
TGI (OVCAR-5 ovarian): > 100 µM
TGI (OVCAR-8 ovarian): > 100 µM
TGI (RPMI-8226 leukemia): > 100 µM
TGI (SF-268 CNS): > 100 µM
TGI (SF-295 CNS): > 100 µM
TGI (SF-539 CNS): > 100 µM
TGI (SK-MEL-5 melanoma): > 100 µM
TGI (SK-OV-3 ovarian): > 100 µM
TGI (SN12C renal): 5.07 µM
TGI (SNB-75 CNS): 99.6 µM
TGI (SNB-78 CNS): > 100 µM
TGI (SR leukemia): > 100 µM
TGI (SW-620 colon): > 100 µM
TGI (U251 CNS): > 100 µM
TGI (UACC-62 melanoma): > 100 µM

CC12CCC(=O)N1c1cnccc1N2 (stereo not drawn)
TGI (A498 renal): > 100 µM
TGI (A549 NSCLC): > 100 µM
TGI (ACHN renal): > 100 µM
TGI (CAKI-1 renal): > 100 µM
TGI (CCRF-CEM leukemia): > 100 µM
TGI (COLO 205 colon): > 100 µM
TGI (DLD-1 colon): > 100 µM
TGI (DMS 114 small cell lung): > 100 µM
TGI (DMS 273 small cell lung): > 100 µM
TGI (EKVX NSCLC): > 100 µM
TGI (HCC-2998 colon): > 100 µM
TGI (HCT-116 colon): > 100 µM
TGI (HCT-15 colon): > 100 µM
TGI (HL-60(TB) leukemia): > 100 µM
TGI (HOP-62 NSCLC): > 100 µM
TGI (HOP-92 NSCLC): > 100 µM
TGI (HT29 colon): > 100 µM
TGI (IGROV1 ovarian): > 100 µM
TGI (K-562 leukemia): > 100 µM
TGI (KM12 colon): > 100 µM
TGI (KM20L2 colon): > 100 µM
TGI (LXFL 529 NSCLC): > 100 µM
TGI (M14 melanoma): > 100 µM
TGI (MALME-3M melanoma): > 100 µM
TGI (MOLT-4 leukemia): > 100 µM
TGI (NCI-H23 lung): > 100 µM
TGI (NCI-H460 lung): > 100 µM
TGI (NCI-H522 lung): > 100 µM
TGI (OVCAR-3 ovarian): > 100 µM
TGI (OVCAR-4 ovarian): > 100 µM
TGI (OVCAR-5 ovarian): > 100 µM
TGI (OVCAR-8 ovarian): > 100 µM
TGI (RPMI-8226 leukemia): > 100 µM
TGI (SF-268 CNS): > 100 µM
TGI (SF-295 CNS): > 100 µM
TGI (SF-539 CNS): > 100 µM
TGI (SK-MEL-2 melanoma): > 100 µM
TGI (SK-MEL-28 melanoma): > 100 µM
TGI (SK-MEL-5 melanoma): > 100 µM
TGI (SK-OV-3 ovarian): > 100 µM
TGI (SN12C renal): > 100 µM
TGI (SNB-19 CNS): > 100 µM
TGI (SNB-75 CNS): > 100 µM
TGI (SNB-78 CNS): > 100 µM
TGI (SR leukemia): > 100 µM
TGI (SW-620 colon): > 100 µM
TGI (TK-10 renal): > 100 µM
TGI (U251 CNS): > 100 µM
TGI (UACC-257 melanoma): > 100 µM
TGI (UACC-62 melanoma): > 100 µM
TGI (UO-31 renal): > 100 µM

CCSC(=O)N1c2ccc(OC)cc2C=CC1C#N (stereo not drawn)
TGI (786-0 renal): 121 µM
TGI (A549 NSCLC): > 1000 µM
TGI (ACHN renal): > 1000 µM
TGI (CAKI-1 renal): 737 µM
TGI (CCRF-CEM leukemia): > 1000 µM
TGI (DMS 114 small cell lung): 1.02 µM
TGI (DU-145 prostate): 0.0105 µM
TGI (EKVX NSCLC): > 1000 µM
TGI (HCT-116 colon): 0.0382 µM
GI50 (HCT-15 colon): 0.00168 µM
TGI (HL-60(TB) leukemia): 0.00522 µM
TGI (HOP-62 NSCLC): 0.0467 µM
TGI (IGROV1 ovarian): > 1000 µM
TGI (K-562 leukemia): > 1000 µM
TGI (M14 melanoma): > 1000 µM
TGI (MALME-3M melanoma): > 1000 µM
GI50 (MCF7 breast): 0.000805 µM
TGI (MCF7 breast): > 1000 µM
GI50 (MDA-MB-231 breast): 0.529 µM
GI50 (MDA-MB-435): 0.000369 µM
TGI (MDA-MB-435): 0.00553 µM
GI50 (MDA-N): 0.0003 µM
TGI (MDA-N): 0.00138 µM
TGI (MOLT-4 leukemia): > 1000 µM
GI50 (NCI/ADR-RES ovarian): 0.00254 µM
TGI (OVCAR-3 ovarian): 0.0062 µM
TGI (OVCAR-4 ovarian): > 1000 µM
GI50 (OVCAR-5 ovarian): 0.596 µM
TGI (OVCAR-5 ovarian): > 1000 µM
GI50 (PC-3 prostate): 0.214 µM
TGI (PC-3 prostate): > 1000 µM
TGI (RPMI-8226 leukemia): 689 µM
TGI (SF-539 CNS): 0.00582 µM
TGI (SK-MEL-2 melanoma): 7.43 µM
TGI (SK-MEL-28 melanoma): > 1000 µM
TGI (SK-MEL-5 melanoma): 0.224 µM
GI50 (SNB-19 CNS): 6.08 µM
TGI (SNB-19 CNS): > 1000 µM
GI50 (SNB-75 CNS): 0.231 µM
TGI (SNB-75 CNS): > 1000 µM
TGI (SW-620 colon): 199 µM
TGI (T-47D breast): 734 µM
TGI (UO-31 renal): > 1000 µM
